Reference: patent publication US9085559B2, “Triazine-aryl-bis-indoles and process for preparation thereof” (COUNCIL OF SCIENTIFIC & INDUSTRIAL RESEARCH, priority 2010, dated 2015)
≈ marks a conversion by molar mass, not a printed value.

Assays:
[1] = test system: airway hyperresponsiveness (AHR) in mouse model of asthma; assay: Airway hyperresponsiveness to methacholine in OVA sensitized and challenged mouse model of asthma; format: in vivo, BALB/c mice
Protocol: The above protocols described in the present invention can be utilized similarly for the synthesis of numerous analogues of ‘triazine-aryl-bis-indole’ class of novel compounds represented by Formula I. • Scheme V • With reference to FIG. 9, mice were sensitized with ovalbumin (OVA) intraperitonially (i.p.) on days 0, 7 and 14 as shown in scheme V. Sham group mice were sensitized with only alum dissolved in PBS. From day 21 to 30, mice were exposed to aerosol of OVA (3%) inhalation 25 minutes daily in a Plexiglas chamber (20×20×10 cm^3). […]
Airway responsiveness was measured by barometric plethysmography using whole-body plethysmography (WBP; Buxco, Troy, N.Y.) 12 hours after last saline or ovalbumin challenge. […] Enhanced pause (Penh) to methacholine as measured using barometric plethysmography is a valid indicator of bronchoconstriction in mice and can be used to measure AHR.
FIG. 3. […] AHR was measured after allergen challenge with increasing concentrations of methacholine and MChPC200 was calculated. […]
Airway responsiveness was measured by barometric plethysmography using whole-body plethysmography (WBP; Buxco, Troy, N.Y.) 12 hours after last saline or ovalbumin challenge. […]

[2] = test system: adhesion of human neutrophils to the endothelial monolayer; assay: Neutrophil adhesion assay on TNF-alpha induced HUVECs; format: cell-based; settings: HUVEC, HUVECs pretreated 2 h, TNF-α 6 h, adhesion 1 h at 37° C.
Protocol: FIG. 5. IICT-TA67 inhibits the adhesion of Neutrophils on TNF-alpha induced HUVECs. To study whether the inhibition of Intercellular Adhesion Molecule type 1 (ICAM-1) and Vascular Cell Adhesion Molecule type 1(VCAM-1) functionally correlates with the inhibition of adhesion of neutrophils to the endothelial monolayer, neutrophil adhesion assay was performed. For this, HUVECs were pretreated with various concentrations of IICT-TA67 for 2 hours followed by induction with TNF-α for 6 hours. Human blood neutrophils were added onto the endothelial cells monolayer and allowed to adhere for one hour at 37° C. The number of cells that remained adhered to the monolayer was estimated by measuring the peroxidase activity.
Neutrophils were isolated from peripheral blood of healthy individuals. Blood was collected in heparin solution (20 U/ml) and erythrocytes were removed by sedimentation against 6% dextran solution. […] The number of cells were recorded to make a final concentration of 6×10^5 cells/ml.
The endothelial cells plated in 96-well culture plates were incubated with or without compound IICT-TA67 at desired concentrations for 2 h, followed by induction with TNF-α (10 ng/ml) for 6 h. […] The absorbance was read at 490 nm using an automated microplate reader (Model 680, Bio-Rad, USA).

COc1ccc(C(c2[nH]c3ccccc3c2CC(=O)O)c2[nH]c3ccccc3c2CC(=O)O)cc1Oc1nc(NC2CC2)nc(NC2CC2)n1 [Compound 7, 2,2′-[2,2′-3-(4,6-bis-cyclopropylamino)-1,3,5-triazin-2-yl-oxy-4-methoxy-phenyl]-methylene-bis-(1H-indole-3,3-diyl)-diacetic acid]
MChPC200 ([1]; OVA/OVA mice, 0.1, 1 and 10 mg/kg orally twice per day, versus OVA/OVA/VEH): significantly attenuated the decrease in MChPC200
dose of maximum effect on MChPC200 ([1]; OVA/OVA mice, orally twice per day): 0.1 mg/kg
IC50 [2]: 12 µg/mL (≈ 17.8 µM)
